Drawing on US20230127944A1, “BROAD-SPECTRUM CARBAPENEMS” (priority 2019, published 2023), this text covers MIC for one molecule.

Bounds are passed on as bounds.

The test system of the experiment is P. aeruginosa ΔmexAB-OprM (an efflux pump knockout). Description: broth microdilution MIC assay, P. aeruginosa ΔmexAB-OprM. It counts as cell-based. Conditions: Pseudomonas aeruginosa, read-out: MIC, P. aeruginosa ΔmexAB-OprM. In a few lines:
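CLSI broth microdilution in cation-adjusted Mueller-Hinton broth: colonies from Mueller Hinton II agar grown 3-5 h at 37° C, inoculum set by OD600 to 5×10^5 CFU/mL final. Compounds in 2-fold serial dilutions; plates incubated 16-20 hours at 37° C. MIC read visually as lowest concentration without growth.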

Turning to `C[C@@H](O)[C@H]1C(=O)N2C(C(=O)O)=C(S[C@@H]3CCN(C[C@H]4CC[C@H](NC(=N)N)CC4)C3)[C@H](C)[C@H]12` [Example 28, (4R,5S,6S)-3-(((R)-1-(((1R,4R)-4-guanidinocyclohexyl)methyl)pyrrolidin-3-yl)thio)-6-((R)-1-hydroxyethyl)-4-methyl-7-oxo-1-azabicyclo[3.2.0]hept-2-ene-2-carboxylic acid], the MIC was under 1 µg/mL.
